{
  "source": "paper PMC6016456",
  "about": "“Human DHEA sulfation requires direct interaction between PAPS synthase 2 and DHEA sulfotransferase SULT2A1” (The Journal of Biological Chemistry, 2018)",
  "molecular_target": "T1, SULT2A1 (Homo sapiens, UniProt Q06520)",
  "T1 construct": "expressed from a SULT2A1 vector in HEK293 cells, co-expressed with PAPS synthase EGFP fusions",
  "T1 sequence (Q06520 1-285)": "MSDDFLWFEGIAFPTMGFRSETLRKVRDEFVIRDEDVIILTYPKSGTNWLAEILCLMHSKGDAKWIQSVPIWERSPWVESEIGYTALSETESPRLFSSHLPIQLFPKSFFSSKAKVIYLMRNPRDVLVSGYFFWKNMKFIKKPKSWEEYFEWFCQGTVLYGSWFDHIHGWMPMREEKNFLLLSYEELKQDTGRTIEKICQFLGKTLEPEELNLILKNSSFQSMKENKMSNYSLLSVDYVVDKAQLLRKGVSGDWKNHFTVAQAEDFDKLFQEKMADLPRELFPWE",
  "assay": "DHEA sulfation assay in transfected HEK293 cells",
  "type": "cell-based",
  "conditions": "co-expressed PAPS synthase supplies PAPS",
  "data": [
    {"compound": "C[C@]12CC[C@H](O)CC1=CC[C@@H]1[C@@H]2CC[C@]2(C)C(=O)CC[C@@H]12", "note": "[DHEA]", "values": [
      {"measurement": "conversion rate", "result": "co-express PAPS synthase protein variants with cytoplasmic SULT2A1"}
    ]}
  ]
}
